Measurements as given in ChEMBL document CHEMBL5465560, “Selectivity Literature for EUbOPEN Chemogenomic Library” (2024).

What was measured:
[1] = molecular target: Death-associated protein kinase 2 (Homo sapiens) (UniProt Q9UIK4); assay: Selectivity interaction (KinomeScan (DiscoverX)) EUB0000607a DAPK2; conditions: at 10 µM
[2] = molecular target: T1, cGMP-dependent protein kinase 1 (Homo sapiens) (UniProt Q13976); assay: Selectivity interaction (KinomeScan (DiscoverX)) EUB0000595a PRKG1; conditions: at 10 µM
T1 sequence (whole entry): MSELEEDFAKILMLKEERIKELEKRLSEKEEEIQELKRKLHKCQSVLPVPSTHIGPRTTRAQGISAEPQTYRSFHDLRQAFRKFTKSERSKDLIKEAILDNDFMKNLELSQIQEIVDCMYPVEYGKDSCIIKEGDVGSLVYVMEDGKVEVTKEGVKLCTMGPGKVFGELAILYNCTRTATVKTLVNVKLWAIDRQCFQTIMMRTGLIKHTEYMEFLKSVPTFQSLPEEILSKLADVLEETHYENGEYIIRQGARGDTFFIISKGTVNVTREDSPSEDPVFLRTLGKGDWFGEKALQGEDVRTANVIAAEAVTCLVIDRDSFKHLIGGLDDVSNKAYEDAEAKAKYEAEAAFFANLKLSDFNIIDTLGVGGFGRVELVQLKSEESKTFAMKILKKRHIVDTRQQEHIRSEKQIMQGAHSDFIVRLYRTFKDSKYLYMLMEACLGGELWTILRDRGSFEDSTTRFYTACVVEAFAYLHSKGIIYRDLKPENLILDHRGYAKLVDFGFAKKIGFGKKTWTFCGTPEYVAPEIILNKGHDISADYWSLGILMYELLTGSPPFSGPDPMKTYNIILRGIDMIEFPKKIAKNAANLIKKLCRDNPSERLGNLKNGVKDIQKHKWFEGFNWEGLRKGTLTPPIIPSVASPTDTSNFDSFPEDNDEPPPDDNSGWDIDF

[3] = molecular target: Tyrosine-protein kinase CSK (Homo sapiens) (UniProt P41240); assay: Selectivity interaction (KinomeScan (DiscoverX)) EUB0000045b CSK
[4] = molecular target: T2, Inhibitor of nuclear factor kappa-B kinase subunit alpha (Homo sapiens) (UniProt O15111); conditions: at 10 µM
T2 sequence (whole entry): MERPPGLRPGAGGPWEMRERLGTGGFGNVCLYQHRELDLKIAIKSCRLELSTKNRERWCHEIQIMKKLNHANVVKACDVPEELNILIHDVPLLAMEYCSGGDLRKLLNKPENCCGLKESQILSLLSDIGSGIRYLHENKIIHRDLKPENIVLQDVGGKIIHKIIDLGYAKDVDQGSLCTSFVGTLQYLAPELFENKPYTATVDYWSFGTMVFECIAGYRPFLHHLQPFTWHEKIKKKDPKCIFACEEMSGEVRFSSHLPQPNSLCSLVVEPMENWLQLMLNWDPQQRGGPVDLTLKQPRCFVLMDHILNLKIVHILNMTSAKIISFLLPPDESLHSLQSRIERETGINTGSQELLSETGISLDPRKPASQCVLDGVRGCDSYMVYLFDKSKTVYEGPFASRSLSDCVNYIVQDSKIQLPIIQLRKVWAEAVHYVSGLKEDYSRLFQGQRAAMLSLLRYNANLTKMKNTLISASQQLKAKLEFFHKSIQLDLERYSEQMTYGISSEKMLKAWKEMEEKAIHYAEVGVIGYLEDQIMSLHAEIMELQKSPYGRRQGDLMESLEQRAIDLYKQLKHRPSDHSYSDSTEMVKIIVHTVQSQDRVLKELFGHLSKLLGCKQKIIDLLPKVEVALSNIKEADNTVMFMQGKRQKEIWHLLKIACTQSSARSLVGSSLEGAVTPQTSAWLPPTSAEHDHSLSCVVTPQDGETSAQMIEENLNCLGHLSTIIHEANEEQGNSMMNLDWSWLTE

[5] = molecular target: T3, Serine/threonine-protein kinase D2 (Homo sapiens) (UniProt Q9BZL6); assay: Selectivity interaction (KinomeScan (DiscoverX)) EUB0000618a PRKD2; conditions: at 10 µM
T3 sequence (whole entry): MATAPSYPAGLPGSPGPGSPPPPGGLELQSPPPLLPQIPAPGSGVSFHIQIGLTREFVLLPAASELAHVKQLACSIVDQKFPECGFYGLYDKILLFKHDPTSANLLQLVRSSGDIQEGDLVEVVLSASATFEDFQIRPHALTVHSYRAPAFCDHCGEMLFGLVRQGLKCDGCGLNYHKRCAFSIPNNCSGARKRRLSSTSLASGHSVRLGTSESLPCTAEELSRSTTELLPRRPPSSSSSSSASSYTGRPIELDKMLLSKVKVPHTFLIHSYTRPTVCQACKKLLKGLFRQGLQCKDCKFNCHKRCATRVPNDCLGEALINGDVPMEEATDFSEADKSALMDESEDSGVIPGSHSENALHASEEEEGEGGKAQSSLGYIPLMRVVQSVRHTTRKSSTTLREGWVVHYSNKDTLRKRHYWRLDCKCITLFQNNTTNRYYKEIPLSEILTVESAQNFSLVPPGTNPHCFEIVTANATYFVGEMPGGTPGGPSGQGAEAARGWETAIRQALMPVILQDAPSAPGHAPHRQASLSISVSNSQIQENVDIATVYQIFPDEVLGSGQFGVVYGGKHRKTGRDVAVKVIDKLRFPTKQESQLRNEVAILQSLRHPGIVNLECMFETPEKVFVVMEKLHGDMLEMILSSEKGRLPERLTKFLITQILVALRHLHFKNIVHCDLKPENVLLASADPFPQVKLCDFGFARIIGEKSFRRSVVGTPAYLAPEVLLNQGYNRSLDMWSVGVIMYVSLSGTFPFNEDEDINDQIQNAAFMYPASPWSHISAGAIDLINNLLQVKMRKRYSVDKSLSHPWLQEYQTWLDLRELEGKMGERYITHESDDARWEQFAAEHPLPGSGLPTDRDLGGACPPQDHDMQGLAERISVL

[6] = molecular target: cAMP-dependent protein kinase catalytic subunit alpha (Homo sapiens, UniProt P17612); assay: Selectivity interaction (KinomeScan (DiscoverX)) EUB0001619a PRKACA; conditions: at 1 µM

Chain of Tyrosine-protein kinase CSK (Homo sapiens) (P41240 2-450 limits assumed): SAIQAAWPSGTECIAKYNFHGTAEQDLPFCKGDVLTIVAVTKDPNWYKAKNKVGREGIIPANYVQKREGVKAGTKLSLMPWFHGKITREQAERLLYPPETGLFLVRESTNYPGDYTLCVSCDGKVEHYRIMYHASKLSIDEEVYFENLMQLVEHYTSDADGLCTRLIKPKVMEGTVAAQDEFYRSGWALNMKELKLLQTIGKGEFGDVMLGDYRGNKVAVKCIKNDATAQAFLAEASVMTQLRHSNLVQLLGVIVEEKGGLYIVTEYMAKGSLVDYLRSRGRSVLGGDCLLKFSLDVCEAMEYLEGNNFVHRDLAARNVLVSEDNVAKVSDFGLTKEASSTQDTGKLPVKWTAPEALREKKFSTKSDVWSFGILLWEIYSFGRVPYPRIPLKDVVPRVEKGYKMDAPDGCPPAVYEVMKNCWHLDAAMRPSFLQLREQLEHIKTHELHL
Chain of Death-associated protein kinase 2 (Homo sapiens) (Q9UIK4 whole entry, looked up): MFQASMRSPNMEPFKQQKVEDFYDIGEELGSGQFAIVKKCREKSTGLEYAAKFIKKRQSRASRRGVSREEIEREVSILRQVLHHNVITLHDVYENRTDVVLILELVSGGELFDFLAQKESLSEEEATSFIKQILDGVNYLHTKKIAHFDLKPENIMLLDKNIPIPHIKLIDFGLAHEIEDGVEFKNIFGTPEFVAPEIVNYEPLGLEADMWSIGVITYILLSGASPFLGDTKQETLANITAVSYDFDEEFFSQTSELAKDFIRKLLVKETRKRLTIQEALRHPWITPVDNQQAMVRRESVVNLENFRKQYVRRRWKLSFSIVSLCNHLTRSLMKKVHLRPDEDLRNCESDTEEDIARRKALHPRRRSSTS

CNC(=O)Nc1ccc(-c2nc(N3CC4CCC(C3)O4)c3cnn(C4CCC5(CC4)OCCO5)c3n2)cc1
% of control [1]: 100%

COCC(=O)NC/C=C/c1ccc2ncnc(Nc3ccc(Oc4ccc(C)nc4)c(C)c3)c2c1 [CP-724714]
% of control [2]: 100%

C=CC(=O)Nc1cc(-n2c(=O)ccc3cnc4ccc(-c5ccc(NS(C)(=O)=O)cc5)cc4c32)ccc1C
% of control ([3]; at 1 µM): 99% | % of control ([3]; at 10 µM): 75%

Cc1cc([C@@H](C)Nc2ccccc2C(=O)O)c2nc(N3CCOCC3)cc(=O)n2c1 [AZD-6482]
% of control [4]: 100%

O[C@H]1CC[C@H](Nc2ncc3nc(Nc4c(F)cc(F)cc4F)n([C@H]4CCOC4)c3n2)CC1
% of control [5]: 77%

N#Cc1cccc(-c2c[nH]c3ncnc(N4CCOCC4)c23)c1
% of control [6]: 94%
